Numbered stars: 1 amine (or outer) side, 2 acyl side, 3 side chain; on linkers, the order of the positions; unused ones are H or OH. Bridge positions count the residues as written; N and C are the ends. Square brackets hold non-standard residues; d marks the D form. Peptide text beside a SMILES is read from it. * marks the point of attachment. X5 = O=C([C@@H]1C[C@@H](OP(=O)(O)O)CN1[*:1])[*:2]; Piperazine(2S-CO,4-Me) = CN1CCN[C@H](C(=O)O)C1; Phe(3-Cl) = N[C@@H](Cc1cccc(Cl)c1)C(=O)O; Morpholine(3S-CO) = O=C(O)[C@@H]1COCCN1; Phe(3-Me) = Cc1cccc(C[C@H](N)C(=O)O)c1; NH(4-Cl-2-F-phenyl) = Fc1cc(Cl)ccc1N*; Pro(4R-Me) = C[C@H]1CN[C@H](C(=O)O)C1; Hyp = O=C(O)[C@@H]1C[C@@H](O)CN1; NH(4-Et-phenyl) = CCc1ccc(N*)cc1; NH(4-Me-phenyl) = Cc1ccc(N*)cc1; aThr = C[C@H](O)[C@H](N)C(=O)O; Pip = O=C(O)[C@@H]1CCCCN1; X3 = c1cc2c(cc1N*)OCCO2; CO = O=C([*:1])[*:2]
Assays:
S. aureus ΔClpP = experiment: Minimal inhibitory concentration, microbroth dilution; assay type: cell-based, Staphylococcus aureus; conditions: MIC; ClpP inactivated
Outline: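 Compound was diluted twofold in the appropriate broth. Bacterial suspension (approx. 10^5 cfu/mL) was then added in equal volume, giving a maximum test concentration of 200 μM. After aerobic overnight incubation at 37 °C, wells were inspected visually for growth.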

S. aureus ClpP (Sa-ClpP) = molecular target: T1, S. aureus ClpP (Sa-ClpP) (Staphylococcus aureus, UniProt Q2G036); experiment: Casein-BODIPY digestion assay (ClpP activation); assay type: biochemical
T1 construct: made in house; host or cells: E. coli BL21 (DE3)

Plasma stability assay = assay type: in vitro ADME, mouse
Outline: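 Compounds at 10 μM final in human or mouse plasma, incubated at 37 °C and sampled at 0, 3, 24 and 48 h in triplicate. Reactions quenched with cold acetonitrile containing warfarin internal standard; parent measured by LC-MS. Half-life from least-squares first-order fit.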

[1] = plasma stability half-life, mouse plasma, 37° C.

T1 sequence (Q2G036 whole entry): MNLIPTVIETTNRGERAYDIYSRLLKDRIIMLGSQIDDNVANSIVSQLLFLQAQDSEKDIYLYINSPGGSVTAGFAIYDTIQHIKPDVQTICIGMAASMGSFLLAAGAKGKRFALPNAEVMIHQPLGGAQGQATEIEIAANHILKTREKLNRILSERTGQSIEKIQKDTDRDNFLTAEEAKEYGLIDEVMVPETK

SMILES	Minimal Inhibitory Concentrations (μM) S. aureus ΔClpP (S. aureus ΔClpP)	EC50 (S. aureus ClpP (Sa-ClpP))	Mouse (Plasma stability assay; mouse, 10 μM)	Mouse (Plasma stability assay; [1])
Cc1cccc(C[C@H](NC(=O)Nc2ccc3c(c2)OCO3)C(=O)N[C@H]2COC(=O)[C@@H]3C[C@@H](C)CN3C(=O)[C@H](C)NC(=O)[C@@H]3CCCCN3C(=O)[C@@H]3CCCN3C2=O)c1 [Compound 23, (S)-2-(3-(BENZO[D][1,3]DIOXOL-5-YL)UREIDO)-N-((2R,6S,8AS,14AS,20S,23AS)-2,6-DIMETHYL-5,8,14,19,23-PENTAOXOOCTADECAHYDRO-1H,5H,14H,19H-PYRIDO[2,1-I]DIPYRROLO[2,1-C:2′,1′-L][1]OXA[4,7,10,13]TETRAAZACYCLOHEXADECIN-20-YL)-3-(M-TOLYL)PROPANAMIDE]	>20 µM	350 ± 90 nM	27.31 h	–
CCc1ccc(NC(=O)N[C@@H](Cc2cccc(C)c2)C(=O)N[C@@H]2C(=O)N3C[C@H](O)C[C@H]3C(=O)N3CCOC[C@H]3C(=O)N[C@@H](C)C(=O)N3C[C@H](C)C[C@H]3C(=O)O[C@H]2C)cc1 [Compound 24, (S)-2-(3-(4-ETHYLPHENYL)UREIDO)-N-((6AS,8R,12S,13S,15AS,17R,21S,23AS)-8-HYDROXY-13,17,21-TRIMETHYL-6,11,15,20,23-PENTAOXOOCTADECAHYDRO-6H,11H,15H-[1,4]OXAZINO[3,4-I]DIPYRROLO[2,1-C:2′,1′-L][1]OXA[4,7,10,13]TETRAAZACYCLOHEXADECIN-12-YL)-3-(M-TOLYL)PROPANAMIDE] ({NH(4-Et-phenyl)-CO}-[Phe(3-Me)][aThr][Hyp][Morpholine(3S-CO)]A[Pro(4R-Me)]; ester 2-C)	>20 µM	130 ± 40 nM	>50 h	–
CCc1ccc(NC(=O)N[C@@H](Cc2cccc(C)c2)C(=O)N[C@@H]2C(=O)N3C[C@H](O)C[C@H]3C(=O)N3CCCC[C@H]3C(=O)N[C@@H](C)C(=O)N3C[C@H](C)C[C@H]3C(=O)O[C@H]2C)cc1 [Compound 25, (S)-2-(3-(4-ETHYLPHENYL)UREIDO)-N-((2R,6S,8AS,14AS,16R,20S,21S,23AS)-16-HYDROXY-2,6,21-TRIMETHYL-5,8,14,19,23-PENTAOXOOCTADECAHYDRO-1H,5H,14H,19H-PYRIDO[2,1-I]DIPYRROLO[2,1-C:2′,1′-L][1]OXA[4,7,10,13]TETRAAZACYCLOHEXADECIN-20-YL)-3-(M-TOLYL)PROPANAMIDE] ({NH(4-Et-phenyl)-CO}-[Phe(3-Me)][aThr][Hyp][Pip]A[Pro(4R-Me)]; ester 2-C)	>20 µM	410 ± 20 nM	>50 h	–
Cc1ccc(NC(=O)N[C@@H](Cc2cccc(C)c2)C(=O)N[C@@H]2C(=O)N3C[C@H](O)C[C@H]3C(=O)N3CCCC[C@H]3C(=O)N[C@@H](C)C(=O)N3C[C@H](C)C[C@H]3C(=O)O[C@H]2C)cc1 [Compound 26, (S)—N-((2R,6S,8AS,14AS,16R,20S,21S,23AS)-16-HYDROXY-2,6,21-TRIMETHYL-5,8,14,19,23-PENTAOXOOCTADECAHYDRO-1H,5H,14H,19H-PYRIDO[2,1-I]DIPYRROLO[2,1-C:2′,1′-L][1]OXA[4,7,10,13]TETRAAZACYCLOHEXADECIN-20-YL)-3-(M-TOLYL)-2-(3-(P-TOLYL)UREIDO)PROPANAMIDE] ({NH(4-Me-phenyl)-CO}-[Phe(3-Me)][aThr][Hyp][Pip]A[Pro(4R-Me)]; ester 2-C)	>20 µM	650 ± 90 nM	–	>50 h
Cc1cccc(C[C@H](NC(=O)Nc2ccc3c(c2)OCCO3)C(=O)N[C@@H]2C(=O)N3C[C@H](O)C[C@H]3C(=O)N3CCOC[C@H]3C(=O)N[C@@H](C)C(=O)N3C[C@H](C)C[C@H]3C(=O)O[C@H]2C)c1 [Compound 27, (S)-2-(3-(2,3-DIHYDROBENZO[B][1,4]DIOXIN-6-YL)UREIDO)-N-((6AS,8R,12S,13S,15AS,17R,21S,23AS)-8-HYDROXY-13,17,21-TRIMETHYL-6,11,15,20,23-PENTAOXOOCTADECAHYDRO-6H,11H,15H-[1,4]OXAZINO[3,4-I]DIPYRROLO[2,1-C:2′,1′-L][1]OXA[4,7,10,13]TETRAAZACYCLOHEXADECIN-12-YL)-3-(M-TOLYL)PROPANAMIDE] ({X3-CO}-[Phe(3-Me)][aThr][Hyp][Morpholine(3S-CO)]A[Pro(4R-Me)]; ester 2-C)	>20 µM	1200 ± 100 nM	>50 h	–
Cc1cccc(C[C@H](NC(=O)Nc2ccc3c(c2)OCCO3)C(=O)N[C@@H]2C(=O)N3C[C@H](O)C[C@H]3C(=O)N3CCCC[C@H]3C(=O)N[C@@H](C)C(=O)N3C[C@H](C)C[C@H]3C(=O)O[C@H]2C)c1 [Compound 28, (S)-2-(3-(2,3-DIHYDROBENZO[B][1,4]DIOXIN-6-YL)UREIDO)-N-((2R,6S,8AS,14AS,16R,20S,21S,23AS)-16-HYDROXY-2,6,21-TRIMETHYL-5,8,14,19,23-PENTAOXOOCTADECAHYDRO-1H,5H,14H,19H-PYRIDO[2,1-I]DIPYRROLO[2,1-C:2′,1′-L][1]OXA[4,7,10,13]TETRAAZACYCLOHEXADECIN-20-YL)-3-(M-TOLYL)PROPANAMIDE] ({X3-CO}-[Phe(3-Me)][aThr][Hyp][Pip]A[Pro(4R-Me)]; ester 2-C)	>20 µM	910 ± 80 nM	>50 h	–
Cc1cccc(C[C@H](NC(=O)Nc2ccc(Cl)cc2F)C(=O)N[C@@H]2C(=O)N3C[C@H](OP(=O)(O)O)C[C@H]3C(=O)N3CCCC[C@H]3C(=O)N[C@@H](C)C(=O)N3C[C@H](C)C[C@H]3C(=O)O[C@H]2C)c1 [Compound 29, (2R,6S,8AS,14AS,16R,20S,21S,23AS)-20-((S)-2-(3-(4-CHLORO-2-FLUOROPHENYL)UREIDO)-3-(M-TOLYL)PROPANAMIDO)-2,6,21-TRIMETHYL-5,8,14,19,23-PENTAOXOOCTADECAHYDRO-1H,5H,14H,19H-PYRIDO[2,1-I]DIPYRROLO[2,1-C:2′,1′-L][1]OXA[4,7,10,13]TETRAAZACYCLOHEXADECIN-16-YL DIHYDROGEN PHOSPHATE] ({NH(4-Cl-2-F-phenyl)-CO}-[Phe(3-Me)][aThr][X5][Pip]A[Pro(4R-Me)]; ester 2-C)	>20 µM	240 ± 240 nM	–	102.25 h
Cc1ccc(NC(=O)N[C@@H](Cc2cccc(C)c2)C(=O)N[C@@H]2C(=O)N3C[C@H](O)C[C@H]3C(=O)N3CCN(C)C[C@H]3C(=O)N[C@@H](C)C(=O)N3C[C@H](C)C[C@H]3C(=O)O[C@H]2C)cc1 [Compound 30, (S)—N-((6AS,8R,12S,13S,15AS,17R,21S,23AS)-8-HYDROXY-2,13,17,21-TETRAMETHYL-6,11,15,20,23-PENTAOXOOCTADECAHYDRO-2H,6H,11H,15H-PYRAZINO[2,1-I]DIPYRROLO[2,1-C:2′,1′-L][1]OXA[4,7,10,13]TETRAAZACYCLOHEXADECIN-12-YL)-3-(M-TOLYL)-2-(3-(P-TOLYL)UREIDO)PROPANAMIDE] ({NH(4-Me-phenyl)-CO}-[Phe(3-Me)][aThr][Hyp][Piperazine(2S-CO,4-Me)]A[Pro(4R-Me)]; ester 2-C)	>20 µM	290 ± 290 nM	–	>50 h
Cc1cccc(C[C@H](NC(=O)Nc2ccc(Cl)cc2F)C(=O)N[C@@H]2C(=O)N3C[C@H](O)C[C@H]3C(=O)N3CCN(C)C[C@H]3C(=O)N[C@@H](C)C(=O)N3C[C@H](C)C[C@H]3C(=O)O[C@H]2C)c1 [Compound 31, (S)-2-(3-(4-CHLORO-2-FLUOROPHENYL)UREIDO)-N-((6AS,8R,12S,13S,15AS,17R,21S,23AS)-8-HYDROXY-2,13,17,21-TETRAMETHYL-6,11,15,20,23-PENTAOXOOCTADECAHYDRO-2H,6H,11H,15H-PYRAZINO[2,1-I]DIPYRROLO[2,1-C:2′,1′-L][1]OXA[4,7,10,13]TETRAAZACYCLOHEXADECIN-12-YL)-3-(M-TOLYL)PROPANAMIDE] ({NH(4-Cl-2-F-phenyl)-CO}-[Phe(3-Me)][aThr][Hyp][Piperazine(2S-CO,4-Me)]A[Pro(4R-Me)]; ester 2-C)	>20 µM	180 ± 180 nM	>50 h	–
C[C@@H]1C[C@H]2C(=O)O[C@@H](C)[C@H](NC(=O)[C@H](Cc3cccc(Cl)c3)NC(=O)Nc3ccc(Cl)cc3F)C(=O)N3CCC[C@H]3C(=O)N3CCN(C)C[C@H]3C(=O)N[C@@H](C)C(=O)N2C1 [Compound 33] ({NH(4-Cl-2-F-phenyl)-CO}-[Phe(3-Cl)][aThr]P[Piperazine(2S-CO,4-Me)]A[Pro(4R-Me)]; ester 2-C)	>20 µM	200 ± 200 nM	>50 h	–

From patent US10570179B2, “Substituted urea depsipeptide analogs as activators of the CLPP endopeptidase” (priority 2016, dated 2020)
